# Source: paper PMC12751014, “Non-Catalytic Inhibitors of the p38/MK2 Interface: Repurposing Approved Drugs to Target Neuroinflammation in Alzheimer’s Disease” (Journal of Medicinal Chemistry, 2025)
# “Also recorded” adds a separate entry of the source.
# What was measured:
# [1] = system: p38α; conditions: systematic kinase profiling; reference number not given; read-out: IC50, inhibition of p38α catalysis; cited from earlier work
# [2] = biological target: recombinant His-tagged p38 (Homo sapiens, UniProt Q16539)
# [3] = biological target: p38α; conditions: systematic kinase profiling; reference number not given; read-out: K d for p38α; cited from earlier work
# [4] = system: HMC3 microglial cells; assay: qRT-PCR of LPS-induced cytokine expression in HMC3 microglial cells; assay type: cell-based, human; conditions: HMC3, 5 μM compound 1 h before 100 ng/mL LPS 4 h
# Procedure: HMC3 cells were treated with 100 ng/mL E. coli LPS (Sigma-Aldrich, catalog no. L4005) for 4 h in DMEM media. […] Following pretreatment, iMGLs were challenged with 100 ng/mL LPS and 20 ng/mL interferon-γ (IFN-γ) for 24 h to induce an inflammatory response. At the end of the stimulation, cell lysates were collected for qPCR analysis of TNF-α […] gene expression. Total RNA isolation from cell samples was conducted using the RNeasy Plus kit (Qiagen, catalog no. 74134) according to manufacturer instructions and treated with DNase I (Invitrogen, catalog no. 18068-015). Extracted RNA was quantified using the Nanodrop One Spectrophotometer (Thermo Scientific) and then reverse-transcribed into cDNA in equal quantity (<1000 ng/reaction) with the SuperScript III System (Invitrogen, catalog no. 18080-051) following manufacturer directions. cDNA sample was treated with RNase H (Invitrogen, catalog no. 18021014) and diluted to 4 ng/μL equivalent of the starting total RNA. qPCR was performed in 96-well PCR plates (BioRad, catalog no. HSP9601) using the Realplex4Mastercycler (Eppendorf). Each reaction well combines 5 μL cDNA sample, 10 μL 2X SYBR Green Supermix (BioRad, catalog no. 1725271), 1 μL 5 μM primer mix for each target gene, and nuclease-free water up to 20 μL. […] The primer sequences used were: TNFα forward [NT], reverse [NT]-6 forward [NT], reverse [NT]-1β forward [NT], reverse [NT] Each gene was expression-normalized against the housekeeping gene GAPDH with the primer sequences: forward [NT], reverse [NT] Primers were obtained from Integrated DNA Technologies in lyophilized form. The cycler program was set to denaturation at 95 °C for 15 s, followed by annealing and extension at 60 °C for 60 s, repeated for 40 PCR cycles. Melting curve analyses were performed for each sample to ensure primer specificity. The experiment was performed in biological quadruplicates and technical quadruplicates.
# [5] = biological target: T1, p38/MK2 interaction (Homo sapiens, UniProt Q16539); assay: TR-FRET ultra-high-throughput screening (uHTS), 1536-well, HEK293T lysate VF-p38α / GST-MK2; assay type: binding; parameters: inhibition of p38/MK2 interaction, primary screen: concentration or dose not given beside the values
# [6] = biological target: T1, p38/MK2 interaction; assay: TR-FRET assay with purified recombinant His-p38 and GST-MK2; assay type: binding; conditions: side-by-side TR-FRET, 2h incubation
# Procedure: ENSG00000112062, UniProt ID: Q16539-1) was cloned into a pMCSG7 vector and transformed into Escherichia coli strain BL21(DE3). […] The resuspended cells were lysed through sonication. The lysate was centrifuged for 20 min at 70,000g at 4 °C and the clarified supernatant was passed through a gravity column containing 2 mL Ni-NTA resin pre-equilibrated with equilibration buffer. The resin was then washed with 25 column volumes of equilibration buffer supplemented with 40 mM imidazole, and the protein was eluted with equilibration buffer supplemented with 200 mM imidazole. […] The purity of the enzyme was verified by sodium dodecyl sulfate-polyacrylamide gel electrophoresis (SDS-PAGE) with Coomassie staining, aliquots flash frozen in liquid nitrogen, and stored at -80 °C.
# [7] = biological target: T2, endogenous p38/MK2 complex (Homo sapiens, UniProt Q16539); assay: Co-immunoprecipitation of endogenous p38/MK2 complex in HMC3 cells; assay type: cell-based; conditions: HMC3 cell lysate
# T2 construct: endogenous in cells; host or cells: HMC3 (ATCC CRL-3304)
# Procedure: HMC3 cells were lysed with 1% NP-40 lysis buffer, as described above. Clear cell lysate was incubated with equilibrated MK2-Trap Agarose beads (ChromoTek, catalog no. mta-20) or Binding Control Agarose Beads (Chromotek, catalog no. bab-20) and compounds or DMSO at 4 °C for 2 h. Immunoprecipitates were washed three times with 1% NP-40 lysis buffer. Samples were boiled in 1X SDS-PAGE sample buffer (BioRad, catalog no. 1610747) for 5 min before analysis by Western blotting.
# Proteins in each sample were separated by SDS-PAGE at 200 V for 40 min using 12.5% acrylamide gels. Transfer to nitrocellulose membranes was completed using the Trans-Blot Turbo Transfer System (BioRad) in TBT buffer (BioRad, catalog no. 10026938). Thirty min incubation in 5% nonfat dry milk (BioRad, catalog no. 170–6404) in TBST buffer (20 mM Tris-base, 150 mM NaCl, and 0.05% Tween 20) at room temperature was used to block membranes. p38α MAPK mouse mAb (Cell Signaling Technology, catalog no. 9217) was used to blot the membrane at 4 °C overnight. […] The wash step was repeated, and the blot was imaged with a ChemiDoc imaging system (BioRad). The SuperSignal West Pico PLUS Chemiluminescent Substrate (Thermo Scientific, catalog no. 34580) was used for developing membranes. Blotting of MK2 was then started with the removal of p38α antibodies using a striping buffer (Thermal Scientific, catalog no. 46430). […]
# [8] = system: human iPSC-derived microglia (iMGL); assay: qRT-PCR of LPS/IFNγ-induced TNF-α expression in iPSC-derived microglia (iMGL); assay type: cell-based; conditions: 5 μM compound 1 h before LPS/IFN-γ 24 h
# T1 sequence (Q16539 whole entry): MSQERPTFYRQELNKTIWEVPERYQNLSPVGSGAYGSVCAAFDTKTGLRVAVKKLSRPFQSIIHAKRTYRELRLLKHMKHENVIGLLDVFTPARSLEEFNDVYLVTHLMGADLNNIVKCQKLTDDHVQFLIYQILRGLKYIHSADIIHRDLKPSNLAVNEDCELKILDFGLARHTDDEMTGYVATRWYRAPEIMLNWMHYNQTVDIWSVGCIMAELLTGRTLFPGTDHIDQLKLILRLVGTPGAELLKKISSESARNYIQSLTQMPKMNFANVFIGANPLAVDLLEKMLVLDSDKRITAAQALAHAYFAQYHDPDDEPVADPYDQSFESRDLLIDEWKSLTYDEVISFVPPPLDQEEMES
# T2 sequence (Q16539 whole entry, one chain of several): as the sequence (Q16539 whole entry) above
# recombinant His-tagged p38, sequence (Q16539 whole entry): as above
structure (smiles),measurement,setting,value
"Cc1cn(-c2cc(NC(=O)c3ccc(C)c(Nc4nccc(-c5cccnc5)n4)c3)cc(C(F)(F)F)c2)cn1 [Nilotinib, 4-methyl-N-[3-(4-methylimidazol-1-yl)-5-(trifluoromethyl)phenyl]-3-[(4-pyridin-3-ylpyrimidin-2-yl)amino]benzamide]",IC50,[1],~2200 nM
same,ΔT max (thermal stabilization),[2],8.22 °C
same,Kd,[3],100 nM
same,"LPS-induced TNF-α, IL-6, and IL-1β expression",[4],significantly (p-value <0.05) suppresses; also recorded: significantly reduced
same,"inhibition of p38/MK2 interaction, primary screen","[5]; relative to DMSO control, 1536-well",≥ 50%
same,Pct of control,"[5]; uHTS TR-FRET signal, Emory Enriched Library",8.91 Pct of control
same,maximal inhibition of p38/MK2 PPI,[6],~75%
same,endogenous p38/MK2 complex formation (co-IP),[7],disrupts the endogenous p38/MK2 complex
same,endogenous p38/MK2 complex formation (co-IP),[7]; listed as nilotinib,decreased p38/MK2 complex formation
same,LPS/IFNγ-induced TNF-α expression,[8],suppresses; also recorded: suppression
